# Measured values taken from patent US7262185B2, “Benzazepine derivative, process for producing the same, and use” (Takeda Chemical Industries Ltd., priority 2001, dated 2007).
# What was measured:
# [1] = molecular target: T1, human CCR5 chemokine receptor (Homo sapiens, UniProt P51681); experiment: Inhibition of [125I]-RANTES binding to CCR5/CHO cells (CCR5 antagonistic activity); details: test compound 1 μM, [125I]-RANTES as ligand, room temperature; for inhibition at 1 µM: 40 min, read-out: Binding Inhibitory Ratio (%)
# T1 construct: expressed in transfected cells
# Protocol: Cloning of CCR5 gene from human spleen cDNA was conducted using the PCR method. Using spleen cDNA (0.5 ng) (TOYOBO CO., LTD, QUICK-Clone cDNA) as a template, PCR was performed in a DNA Thermal Cycler 480 (manufactured by Perkin Elmer) (reaction conditions: 30 cycles of 95° C. for 1 minute, 60° C. for 1 minute, and 75° C. for 5 minutes) by adding primer sets, SEQ. ID NO: 1 (sequence length: 34; sequence type: nucleic acid; chain number: single strand; topology: linear; kind of sequence: other nucleic acid synthetic. DNA) described in Experimental. Example (1) of WO 99/32100, and SEQ ID NO: 2 (sequence length: 34; sequence type: nucleic acid; chain number: single strand; topology: linear; kind of sequence: other nucleic acid synthetic. DNA) described in Experimental. Example (1) of WO 99/32100, (25 pmol, respectively), which were prepared referring to the nucleotide sequence of CCR5 gene, as reported by Samson et al. (Biochemistry 35 (11), 3362-3367 (1996)) and by using TaKaRa. EX Taq (Takara Shuzo). The resultant. PCR product was subjected to agarose gel electrophoresis to collect an approximately 1.0 kb. DNA fragment, which was subjected to an Original TA Cloning Kit (Funakoshi Co., Ltd.) to carry out cloning of CCR5 gene.
# The plasmid obtained above was digested with restriction enzymes XbaI (Takara Shuzo Co., Ltd.) and BamHI (Takara Shuzo Co., Ltd.), and then subjected to agarose gel electrophoresis to collect DNA fragment of about 1.0 kb. The DNA fragment and plasmid pcDNA 3.1 (Funakoshi. Co., Ltd.) for expression in animal cells, which was previously digested with XbaI and BamHI, were mixed and ligated by DNA Ligation Kit Ver. 2 (Takara Shuzo Co., Ltd.). The resulting plasmid was subjected to transformation into. E. coli JM109 competent cells (Takara Shuzo Co., Ltd.) to obtain plasmid pCKR5.
# CHO-K1 cells were cultured in a 750-ml tissue culture flask (Becton, Dickinson and Company.) using. Ham F12 medium (NIHON PHARMACEUTICAL CO., LTD.) containing 10% fetal bovine serum (Lifetech Oriental) and were collected using 0.5 g/L trypsin-0.2 g/L EDTA (Lifetech Oriental). The cells were washed with PBS (Lifetech Oriental), centrifuged (1000 rpm, 5 minutes), and suspended in PBS. The DNA was introduced into the cells using a Gene Pulser (Bio-Rad Laboratories, Inc.) under the following conditions. Namely, 8×10^6 cells and 10 μg of plasmid pCKR5 for expression of human CCR5 were placed in a cuvette having a 0.4-cm gap, and electroporation was carried out with a voltage 0.25 kV and 960 μF of capacitance. Then, the cells were transferred into Ham's. F12 medium containing 10% fetal bovine serum, and incubated for 24 hours. The cells were collected, centrifuged, and suspended in Ham' F12 medium containing 10% fetal bovine serum and Geneticin (Lifetech Oriental) at a concentration of 500 μg/ml. The suspension of cells was diluted to a concentration of 10^4 cells/ml, and was inoculated onto 96-well plate (Becton Dickinson), to obtain Geneticin-resistant strain.
# Then, resulting. Geneticin-resistant strain were cultured on 96-well plate (Becton Dickinson), and CCR5-expressing cells were selected from the resistant cells. Namely, in an assay buffer, (Ham's F12 medium containing 0.5% BSA, and 20 mM HEPES (Wako Pure Chemical Ind., pH 7.2)) to which was added […][125I]-RANTES (Amersham) as a ligand, the cells were subjected to a binding reaction at room temperature for 40 minutes. Wells containing the cells were washed with ice-cooled PBS, and 50 μl/well of 1M NaOH was added and stirred. The cells to which the ligand was bound specifically, i.e., CCR5/CHO cells, were selected by measurement of radioactivity using a […].
# The CCR5/CHO cells were inoculated onto 96-well microplate at a concentration of 5×10^4 cells/well, and were cultured for 24 hours. After removal of the medium by aspiration, to each well was added an assay buffer containing a test compound (1 μM), and [125I]/RANTES (Amersham) used as a ligand at a concentration of […]. […]
# T1 sequence (P51681 whole entry): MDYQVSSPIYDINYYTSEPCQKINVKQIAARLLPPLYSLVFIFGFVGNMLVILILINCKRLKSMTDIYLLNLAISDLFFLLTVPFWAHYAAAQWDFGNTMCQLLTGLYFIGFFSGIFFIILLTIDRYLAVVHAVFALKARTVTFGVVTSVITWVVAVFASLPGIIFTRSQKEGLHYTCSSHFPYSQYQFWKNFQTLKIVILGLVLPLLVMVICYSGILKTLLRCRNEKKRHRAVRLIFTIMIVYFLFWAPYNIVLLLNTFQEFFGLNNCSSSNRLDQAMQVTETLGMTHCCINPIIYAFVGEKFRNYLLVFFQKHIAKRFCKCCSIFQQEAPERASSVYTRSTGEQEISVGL
Binding Inhibitory Ratio (%) ([1]; 40 minutes),SMILES,inhibition at 1 µM [1],melting point
,"CCCCOCCOc1ccc(-c2ccc3c(c2)C=C(C(=O)Nc2ccc(SCc4nccn4CCCC(N)=O)cc2)CCN3CC(C)C)cc1 [Compound 415, N-[4-[[[1-(4-amino-4-oxobutyl)-1H-imidazol-2-yl]methyl]thio]phenyl]-7-[4-(2-butoxyethoxy)phenyl]-1-isobutyl-2,3-dihydro-1H-1-benzazepine-4-carboxamide]",98%,142 to 143 °C
,"CCCCOCCOc1ccc(-c2ccc3c(c2)C=C(C(=O)Nc2ccc([S+]([O-])Cc4nncn4CC)cc2)CCN3CC(C)C)cc1 (centres unmarked) [Compound 135, 7-[4-(2-butoxyethoxy)phenyl]-N-[4-(4-ethyl-4H-1,2,4-triazol-3-ylmethylsulfinyl)phenyl]-1-isobutyl-2,3-dihydro-1H-benzazepine-4-carboxamide]",100%,102 to 104 °C
,"CCCCOCCOc1ccc(-c2ccc3c(c2)C=C(C(=O)Nc2ccc(CCCn4cnnc4)cc2)CCN3CC(C)C)cc1 [Compound 63, 7-[4-(2-butoxyethoxy)phenyl]-1-isobutyl-N-[4-[3-(4H-1,2,4-triazol-4-yl)propyl]phenyl]-2,3-dihydro-1H-1-benzazepine-4-carboxamide]",96%,165 to 167 °C
,"CCCCOCCOc1ccc(-c2ccc3c(c2)C=C(C(=O)Nc2ccc(SCc4nncn4CCC)c(C)c2)CCN3CC(C)C)cc1 [Compound 40, 7-[4-(2-butoxyethoxy)phenyl]-1-isobutyl-N-[3-methyl-4-[(4-propyl-4H-1,2,4-triazol-3-yl)methylthio]phenyl]-2,3-dihydro-1H-1-benzazepine-4-carboxamide]",90%,104 to 107 °C
,"CCCCOCCOc1ccc(-c2ccc3c(c2)C=C(C(=O)Nc2ccc([S+]([O-])Cc4cncn4C4CC4)cc2)CCN3CC(C)C)cc1 (centres unmarked) [Compound 74, 7-[4-(2-butoxyethoxy)phenyl]-1-isobutyl-N-[4-[(3-cyclopropylimidazol-4-yl)methylsulfinyl]phenyl]-2,3-dihydro-1H-1-benzazepine-4-carboxamide]",97%,
,"CCCCOCCOc1ccc(-c2ccc3c(c2)C=C(C(=O)Nc2ccc([S+]([O-])Cc4cncn4CCC)cc2)CCN3CCC)cc1 (centres unmarked) [Compound 375, 7-[4-(2-butoxyethoxy)phenyl]-1-propyl-N-[4-[[[1-propylimidazol-5-yl]methyl]sulfinyl]phenyl]-2,3-dihydro-1-benzazepine-4-carboxamide]",92%,
,"CCCCOCCOc1ccc(-c2ccc3c(c2)C=C(C(=O)Nc2ccc(SCc4nncn4CCC)nc2)CCN3CC(C)C)cc1 [Compound 53, 7-[4-(2-butoxyethoxy)phenyl]-1-isobutyl-N-[2-(4-propyl-4H-1,2,4-triazol-3-yl)methylthiopyridin-5-yl]-2,3-dihydro-1H-1-benzazepine-4-carboxamide]",98%,
,"CCCCOCCOc1ccc(-c2ccc3c(c2)C=C(C(=O)Nc2ccc([C@H](O)c4cccc[n+]4[O-])cc2)CCN3CC(C)C)cc1 [Compound 85, 7-[4-(2-butoxyethoxy)phenyl]-N-[4-[(S)-hydroxy(1-oxidopyridin-2-yl)methyl]phenyl]-1-isobutyl-2,3-dihydro-1H-1-benzazepine-4-carboxamide]",92%,
,"CCCCOCCOc1ccc(-c2ccc3c(c2)C=C(C(=O)Nc2ccc(SCCn4cnnc4)cc2)CCN3CC(C)C)cc1 [Compound 154, 7-[4-(2-butoxyethoxy)phenyl]-N-[4-(4H-1,2,4-triazol-4-ylethylthio)phenyl]-1-isobutyl-2,3-dihydro-1H-benzazepine-4-carboxamide]",100%,
,"CCCCOCCOc1ccc(-c2ccc3c(c2)C=C(C(=O)Nc2ccc([S+]([O-])Cc4cccnc4C)nc2)CCN3CC(C)C)cc1 (centres unmarked) [Compound 272, 7-[4-(2-butoxyethoxy)phenyl]-1-isobutyl-N-[6-[[(2-methyl-3-pyridinyl)methyl]sulfinyl]-3-pyridinyl]-2,3-dihydro-1-benzazepine-4-carboxamide]",98%,
,"CCCCOCCOc1ccc(-c2ccc3c(c2)C=C(C(=O)Nc2ccc([C@H](O)c4cccc[n+]4[O-])cc2)CCN3Cc2cnn(C)c2)cc1 [Compound 87, 7-[4-(2-butoxyethoxy)phenyl]-N-[4-[(S)-hydroxy(1-oxidopyridin-2-yl)methyl]phenyl]-1-(1-methylpyrazol-4-ylmethyl)-2,3-dihydro-1H-1-benzazepine-4-carboxamide]",89%,94 to 97 °C
,"CCCCOCCOc1ccc(-c2ccc3c(c2)C=C(C(=O)Nc2ccc([S+]([O-])Cc4nncn4CCC)cc2)CCN3CCC)cc1 (centres unmarked) [Compound 141, 7-[4-(2-butoxyethoxy)phenyl]-1-propyl-N-[4-(4-propyl-4H-1,2,4-triazol-3-ylmethylsulfinyl)phenyl]-2,3-dihydro-1H-benzazepine-4-carboxamide]",100%,
,"CCCCOCCOc1ccc(-c2ccc3c(c2)C=C(C(=O)Nc2ccc([S+]([O-])Cc4cccnc4)cc2)CCN3CC(C)C)cc1 (centres unmarked) [Compound 210, 7-[4-(2-butoxyethoxy)phenyl]-1-isobutyl-N-[4-[(3-pyridinylmethyl)sulfinyl]phenyl]-2,3-dihydro-1-benzazepine-4-carboxamide]",97%,
,"CCCCOCCOc1ccc(-c2ccc3c(c2)C=C(C(=O)Nc2ccc4nc([S+]([O-])Cc5cncn5CCC)[nH]c4c2)CCN3CC(C)C)cc1 (centres unmarked) [Compound 313, 7-[4-(2-butoxyethoxy)phenyl]-1-isobutyl-N-[2-[[(1-propylimidazol-5-yl)methyl]sulfinyl]benzimidazol-5-yl]-2,3-dihydro-1-benzazepine-4-carboxamide]",95%,
,"CCCCOCCOc1ccc(-c2ccc3c(c2)C=C(C(=O)Nc2ccc(SCc4nccn4C)c(C)c2)CCN3CC(C)C)cc1 [Compound 355, 7-[4-(2-butoxyethoxy)phenyl]-1-isobutyl-N-[3-methyl-4-[[(1-methylimidazol-2-yl)methyl]sulfanyl]phenyl]-2,3-dihydro-1-benzazepine-4-carboxamide]",99%,
,"CCCCOCCOc1ccc(-c2ccc3c(c2)C=C(C(=O)Nc2ccc(SCc4nccn4C4CC4)cc2)CCN3CC(C)C)cc1 [Compound 366, 7-[4-(2-butoxyethoxy)phenyl]-N-[4-[[[1-cyclopropylimidazol-2-yl]methyl]sulfanyl]phenyl]-1-isobutyl-2,3-dihydro-1-benzazepine-4-carboxamide]",96%,
,"CCCCOCCOc1ccc(-c2ccc3c(c2)C=C(C(=O)Nc2ccc(SCc4cnc5n4CCCC5)cc2)CCN3CC(C)C)cc1 [Compound 404, 7-[4-(2-butoxyethoxy)phenyl]-1-isobutyl-N-[4-[[(5,6,7,8-tetrahydroimidazo[1,2-a]pyridin-3-yl)methyl]thio]phenyl]-2,3-dihydro-1H-1-benzazepine-4-carboxamide]",85%,
100%,CCCCOCCOc1ccc(-c2ccc3c(c2)C=C(C(=O)Nc2ccc(SCc4nccn4CCCO)cc2)CCN3CC(C)C)cc1 [Compound 436],,
